Assay results as given in ChEMBL document CHEMBL1201862, “PubChem BioAssay data set” (2004).
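Five concentrations, 48 hours, 96-well plates. GI50 marks 50% less growth.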 Activity calls are given as the source filed them. Rule as the data show it: active = GI50 up to about 1.1 µM and inactive = higher.

Key:
Assay in all cases: DTP human tumour cell line panel, 48 h
U-251 = system: U-251
CCRF-CEM = system: CCRF-CEM
A498 = system: A498
SK-OV-3 = system: SK-OV-3
UACC-62 = system: UACC-62
KM12 = system: KM12
SF-539 = system: SF-539
786-0 = system: 786-0
M14 = system: M14
OVCAR-8 = system: OVCAR-8
HCT-15 = system: HCT-15
MDA-N = system: MDA-N
EKVX = system: EKVX
K562 = system: K562
SR = system: SR
HOP-92 = system: HOP-92
MDA-MB-231 = system: MDA-MB-231
SK-MEL-2 = system: SK-MEL-2
SNB-75 = system: SNB-75
SK-MEL-28 = system: SK-MEL-28

SMILES | GI50 (U-251) | GI50 (CCRF-CEM) | GI50 (A498) | GI50 (SK-OV-3) | GI50 (UACC-62) | GI50 (KM12) | GI50 (SF-539) | GI50 (786-0) | GI50 (M14) | GI50 (OVCAR-8) | GI50 (HCT-15) [µM] | GI50 (MDA-N) | GI50 (EKVX) | GI50 (K562) | GI50 (SR) | GI50 (HOP-92) | GI50 (MDA-MB-231) | GI50 (SK-MEL-2) | GI50 (SNB-75) | GI50 (SK-MEL-28)
CCC1(C)NC(c2cnccn2)=NN1c1ccc(Cl)cc1 (stereo not given) | 52.8 µM (inactive) | 18.7 µM (inactive) | > 100 µM (inactive) | > 100 µM (inactive) | > 100 µM (inactive) | > 100 µM (inactive) | > 100 µM (inactive) | 73.8 µM (inactive) | > 100 µM (inactive) | > 100 µM (inactive) | > 100 | > 100 µM (inactive) | > 100 µM (inactive) | 39.3 µM (inactive) | 22.1 µM (inactive) | > 100 µM (inactive) | > 100 µM (inactive) | > 100 µM (inactive) | 19.3 µM (inactive) | > 100 µM (inactive)
OCC1CCCCN1Cc1nc2cc(Cl)ccc2[nH]1 (stereo not given) | > 100 µM (inactive) | > 100 µM (inactive) | > 100 µM (inactive) | > 100 µM (inactive) | > 100 µM (inactive) | > 100 µM (inactive) | > 100 µM (inactive) | > 100 µM (inactive) | > 100 µM (inactive) | > 100 µM (inactive) | > 100 | > 100 µM (inactive) | > 100 µM (inactive) | > 100 µM (inactive) | > 100 µM (inactive) | > 100 µM (inactive) | > 100 µM (inactive) | > 100 µM (inactive) | > 100 µM (inactive) | > 100 µM (inactive)
CCC1=C(CC2NCCc3ccccc32)CC2c3cc(OC)c(OC)cc3CCN2C1 (stereo not given) | 0.55 µM (active) | 0.357 µM (active) | 0.83 µM (active) | 1.07 µM (active) | 1.29 µM (inactive) | 0.443 µM (active) | 0.578 µM (active) | 0.338 µM (active) | 0.502 µM (active) | 0.445 µM (active) | 0.552 | 0.452 µM (active) | 0.305 µM (active) | 0.286 µM (active) | 0.342 µM (active) | 0.675 µM (active) | 0.358 µM (active) | 0.603 µM (active) | 0.531 µM (active) | 1.16 µM (inactive)
O=S1(=O)c2ccccc2C(=NO)c2ccccc21 | > 100 µM (inactive) | 47.1 µM (inactive) | > 100 µM (inactive) | > 100 µM (inactive) | > 100 µM (inactive) | > 100 µM (inactive) | > 100 µM (inactive) | > 100 µM (inactive) | > 100 µM (inactive) | > 100 µM (inactive) | > 100 | > 100 µM (inactive) | 35.3 µM (inactive) | 68.2 µM (inactive) | 29.8 µM (inactive) | > 100 µM (inactive) | > 100 µM (inactive) | > 100 µM (inactive) | > 100 µM (inactive) | > 100 µM (inactive)
CCOC(=O)c1cc(C2(O)CCN(CC(C)CC)C2=O)c(-c2cc(C)no2)[nH]1 (stereo not given) | > 100 µM (inactive) | > 100 µM (inactive) | > 100 µM (inactive) | > 100 µM (inactive) | > 100 µM (inactive) | > 100 µM (inactive) | > 100 µM (inactive) | > 100 µM (inactive) | > 100 µM (inactive) | > 100 µM (inactive) | > 100 | > 100 µM (inactive) | > 100 µM (inactive) | > 100 µM (inactive) | > 100 µM (inactive) | > 100 µM (inactive) | > 100 µM (inactive) | > 100 µM (inactive) | > 100 µM (inactive) | > 100 µM (inactive)
O=c1c2ccccc2n2nnc3ccc(NCCNCCO)c1c32 | 0.944 µM (active) | 0.948 µM (active) | 1.89 µM (inactive) | 2.08 µM (inactive) | 2.42 µM (inactive) | 1.66 µM (inactive) | 3.78 µM (inactive) | 1.02 µM (active) | 1.91 µM (inactive) | 0.908 µM (active) | 2.03 | 1.69 µM (inactive) | 2.08 µM (inactive) | 1.61 µM (inactive) | 0.649 µM (active) | 1.88 µM (inactive) | 2.85 µM (inactive) | 3.19 µM (inactive) | 1.42 µM (inactive) | 2.87 µM (inactive)
